Results taken from patent US6569878B1, “Substituted 4-amino-thiazol-2-yl compounds as cyclin-dependent kinase inhibitors” (Agouron Pharmaceuticals Inc., priority 1997, dated 2003).
Like-named read-outs stand apart in the source and are kept apart here.

How the values were obtained:
[1] = target: T1, complex of cyclin D1 and a fusion protein of human CDK4 and glutathione-S-transferase (GST-CDK4) (Homo sapiens, UniProt P11802); assay: Inhibition of CDK4/cyclin D retinoblastoma kinase activity (D-type cyclin is D1); format: biochemical; conditions: superscript b: D-type cyclin is D1, read-out: Ki CDK 4/D
T1 construct: made in house; host or cells: insect cells, co-infected with baculovirus
T1 sequence (P11802 whole entry, the tested form may be a part): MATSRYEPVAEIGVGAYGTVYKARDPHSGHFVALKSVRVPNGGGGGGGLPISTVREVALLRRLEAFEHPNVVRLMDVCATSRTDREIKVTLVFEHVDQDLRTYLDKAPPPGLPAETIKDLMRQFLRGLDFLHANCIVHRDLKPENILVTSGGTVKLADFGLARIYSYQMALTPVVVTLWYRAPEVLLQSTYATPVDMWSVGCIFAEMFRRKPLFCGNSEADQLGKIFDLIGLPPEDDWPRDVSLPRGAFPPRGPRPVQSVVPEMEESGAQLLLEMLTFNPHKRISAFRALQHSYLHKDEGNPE
T1 sequence (P24385 whole entry partner, the tested form may be a part): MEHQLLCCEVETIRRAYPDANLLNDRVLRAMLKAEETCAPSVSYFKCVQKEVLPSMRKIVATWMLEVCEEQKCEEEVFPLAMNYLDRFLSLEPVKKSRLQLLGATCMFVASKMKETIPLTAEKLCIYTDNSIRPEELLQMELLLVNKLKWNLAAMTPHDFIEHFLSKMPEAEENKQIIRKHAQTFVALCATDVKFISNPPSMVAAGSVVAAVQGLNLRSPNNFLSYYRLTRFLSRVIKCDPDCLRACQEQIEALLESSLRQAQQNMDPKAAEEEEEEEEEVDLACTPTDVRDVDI
Procedure: Cyclin-dependent kinase activity was measured by quantifying the enzyme-catalyzed, time-dependent incorporation of radioactive phosphate from [^32P]ATP or [^33P]ATP into a protein substrate. Unless noted otherwise, assays were performed in 96-well plates in a total volume of 50 μL, in the presence of 10 mM HEPES (N-[2-hydroxyethyl]piperazine-N′-[2-ethanesulfonic acid]) (pH 7.4), 10 mM MgCl2, 25 μM adenosine triphosphate (ATP), 1 mg/mL ovalbumin, 5 μg/mL leupeptin, 1 mM dithiothreitol, 10 mM β-glycerophosphate, 0.1 mM sodium vanadate, 1 mM sodium fluoride, 2.5 mM ethylene glycol-bis(β-aminoethyl ether)-N,N,N′N′-tetraacetic acid (EGTA), 2% (v/v) dimethylsulfoxide, and 0.03-0.4 μCi [^32/33P]ATP per reaction. Reactions were initiated with enzyme, incubated at 30° C., and terminated after 20 minutes by the addition of ethylenediaminetetraacetic acid (EDTA) to 250 mM. The phosphorylated substrate was then captured on a nitrocellulose or phosphocellulose membrane using a 96-well filtration manifold, and unincorporated radioactivity was removed by repeated washing with 0.85% phosphoric acid. Radioactivity was quantified by exposing the dried membranes to a phosphorimager.
Apparent Ki values were measured by assaying enzyme activity in the presence of different inhibitor compound concentrations and subtracting the background radioactivity measured in the absence of enzyme. The kinetic parameters (kcat, Km for ATP) were measured for each enzyme under the usual assay conditions by determining the dependence of initial rates on ATP concentration. Inhibition data were fit to an equation for competitive inhibition using Kaleidagraph (Synergy Software), or were fit to an equation for competitive tight-binding inhibition using the software KineTic (BioKin, Ltd.).
A complex of human CDK4 and cyclin D3, or a complex of cyclin D1 and a fusion protein of human CDK4 and gluathione-S-transferase (GST-CDK4), or a complex of human CDK4 and genetically truncated (1-264) cyclin D3, was purified using traditional biochemical chromatographic techniques from insect cells that had been co-infected with the corresponding baculovirus expression vectors (see e.g., Meijer and Kim, “Chemical Inhibitors of Cyclin-Dependent Kinases,” Methods in Enzymol,. vol. 283 (1997), pp. 113-128.). The enzyme complex (5 or 50 nM) was assayed with 0.3-0.5 μg of purified recombinant retinoblastoma protein fragment (Rb) as a substrate. The engineered Rb fragment (residues 386-928 of the native retinoblastoma protein; 62.3 kDa) contains the majority of the phosphorylation sites found in the native 106-kDa protein, as well as a tag of six histidine residues for ease of purification. Phosphorylated Rb substrate was captured by microfiltration on a nitrocellulose membrane and quantified using a phosphorimager as described above. For measurement of tight-binding inhibitors, the enzyme complex concentration was lowered to 5 nM, and the assay duration was extended to 60 minutes, during which the time-dependence of product formation was linear.

[2] = target: T2, human CDK1 (cdc2) and cyclin B (Homo sapiens, UniProt P06493); assay: Inhibition of CDK1(cdc2)/cyclin B histone H1 kinase activity; format: biochemical; conditions: read-out: Ki CDK 1/B
T2 construct: purchased New England Biolabs (Beverly Mass.)
T2 sequence (P06493 whole entry): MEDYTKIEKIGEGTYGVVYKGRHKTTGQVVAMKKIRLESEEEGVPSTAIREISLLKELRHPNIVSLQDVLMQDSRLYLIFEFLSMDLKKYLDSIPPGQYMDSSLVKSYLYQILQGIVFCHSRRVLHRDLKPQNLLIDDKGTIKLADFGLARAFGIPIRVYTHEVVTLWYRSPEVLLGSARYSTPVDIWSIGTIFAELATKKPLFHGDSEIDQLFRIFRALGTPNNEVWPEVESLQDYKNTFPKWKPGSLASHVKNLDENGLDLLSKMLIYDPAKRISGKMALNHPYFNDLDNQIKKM
T2 sequence (P14635 whole entry partner): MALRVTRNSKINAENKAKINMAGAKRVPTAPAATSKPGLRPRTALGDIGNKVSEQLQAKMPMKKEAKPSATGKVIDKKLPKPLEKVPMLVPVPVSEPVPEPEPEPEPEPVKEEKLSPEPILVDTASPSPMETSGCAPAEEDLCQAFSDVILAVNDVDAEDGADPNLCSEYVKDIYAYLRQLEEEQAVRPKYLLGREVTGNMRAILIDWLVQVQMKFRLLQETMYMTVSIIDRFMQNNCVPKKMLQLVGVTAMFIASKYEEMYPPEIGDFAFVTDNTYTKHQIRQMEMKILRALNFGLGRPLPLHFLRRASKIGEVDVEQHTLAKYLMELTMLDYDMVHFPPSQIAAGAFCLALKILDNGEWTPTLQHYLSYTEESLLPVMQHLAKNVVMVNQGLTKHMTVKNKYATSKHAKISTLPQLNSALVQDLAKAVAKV
How it was run: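 CDK1/cyclin B (commercial, or CDK1/GST-cyclin B1 from co-infected insect cells) phosphorylated histone H1 with 25 μM [32/33P]ATP at pH 7.4, 30° C for 20 min, 2% DMSO. Product captured on phosphocellulose and read by phosphorimager; apparent Ki from competitive or tight-binding fits, with Km for ATP determined.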

[3] = target: T3, CDK2/cyclin A (Homo sapiens, UniProt P24941); assay: Inhibition of CDK2/cyclin A retinoblastoma kinase activity; format: biochemical; conditions: read-out: Ki CDK 2/A
T3 construct: made in house; host or cells: CDK2: insect cells (baculovirus); cyclin A: E. coli, then limited proteolysis
How it was run: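 Baculovirus-expressed CDK2 with excess proteolyzed cyclin A (or purified complex), 150 nM or 5 nM, phosphorylating an Rb fragment with 25 μM [32/33P]ATP, pH 7.4, 30° C, 20 min. Filter-captured radioactivity by phosphorimager; apparent Ki from fits to competitive or tight-binding competitive inhibition using measured ATP Km.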

[4] = target: T4, complex of human CDK4 and cyclin D3 (Homo sapiens, UniProt P11802); assay: Inhibition of CDK4/cyclin D retinoblastoma kinase activity (D-type cyclin is D3); format: biochemical; conditions: superscript a: D-type cyclin is D3, read-out: Ki CDK 4/D
T4 construct: made in house; host or cells: insect cells, co-infected with baculovirus
T4 sequence (P11802 whole entry): as the sequence (P11802 whole entry, the tested form may be a part) above
T4 sequence (P30281 whole entry partner): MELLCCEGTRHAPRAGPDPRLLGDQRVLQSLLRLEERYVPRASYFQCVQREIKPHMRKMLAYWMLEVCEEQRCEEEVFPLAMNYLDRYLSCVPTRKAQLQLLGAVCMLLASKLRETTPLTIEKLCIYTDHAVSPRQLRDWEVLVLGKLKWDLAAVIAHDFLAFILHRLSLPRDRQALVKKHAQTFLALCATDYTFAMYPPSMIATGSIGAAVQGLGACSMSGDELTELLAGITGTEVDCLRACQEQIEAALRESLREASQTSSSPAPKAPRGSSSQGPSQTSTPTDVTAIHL
How it was run: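 Apparent Ki derived by fitting background-corrected activity to competitive (or, for tight binders, competitive tight-binding) equations with measured ATP Km. Rb phosphorylation by radiolabelled ATP was measured at 30°C, 20 min standard or 60 min at 5 nM complex for tight binders, via nitrocellulose capture and phosphorimager.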

[5] = test system: HCT116; assay: Inhibition of cell growth, MTT assay, HCT116; format: cell-based, human; conditions: Homo sapiens, HCT-116
How it was run: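 Cells rested 4 h after plating, then exposed to graded compound concentrations in 0.5% (v/v) DMSO for four to six days (cell-type dependent) at 37° C, 5% CO2. Viability was read by MTT (0.2 mg/mL final, 4 h at 37° C), with DMSO-solubilized formazan measured at 540 nm.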

[6] = test system: SW-480; assay: Inhibition of cell growth, MTT assay, SW-480; format: cell-based; conditions: Homo sapiens, SW480; SW-480, MTT assay
Procedure: Inhibition of cell growth was measured using the tetrazolium salt assay, which is based on the ability of viable cells to reduce 3-(4,5-dimethylthiazol-2-yl)-2,5-[2H]-diphenyltetrazolium bromide (MTT) to formazan (Mossman, Journal of Immunological Methods, vol. 65 (1983), pp. 55-58). The water-insoluble purple formazan product was then detected spectrophotometrically. Various cell lines (HCT-116, Saos-2, U2-OS, SW480, COLO-205, RXF-393, M14, MDA-MB-468, and MCF7) were grown in 96-well plates. Cells were plated in the appropriate medium at a volume of 135 μl/well in either McCoy's 5A Medium (for Saos-2, U2-OS, SW480, and HCT-116 cells), RPMI (for COLO-205, RXF-393, M14 cells), or Minimum Essential Medium Eagle (for MDA-MB-468 and MCF7 cells). Plates were incubated for four hours before addition of inhibitor compounds. Different concentrations of inhibitor compounds were added in 0.5% (v/v) dimethylsulfoxide (15 μL/well), and cells were incubated at 37° C. (5% CO2) for four to six days (depending on cell type). At the end of the incubation, MTT was added to a final concentration of 0.2 mg/mL, and cells were incubated for 4 hours more at 37° C. After centrifugation of the plates and removal of medium, the absorbance of the formazan (solubilized in dimethylsulfoxide) was measured at 540 nm. […] All results were compared to control cells treated only with 0.5% (v/v) dimethylsulfoxide.

Row | SMILES | Ki [1] | Ki [2] | Ki [3] | Ki ([4]; apparent Ki) | Ki ([1]; μM) | also measured
1 | Nc1nc(Nc2ccccc2)sc1C(=O)c1ccccc1 [I(1)*] | 0.102 µM | 500 nM | 0.46 µM | 0.64 µM | – | –
2 | CC(=O)c1sc(NCc2ccccc2)nc1N [I(3)*] | – | – | – | – | > 100 µM | Ki ([4]; μM): > 5 µM
3 | Nc1cccc(C(=O)c2sc(Nc3ccccc3)nc2N)c1 [D(1), (3-Amino-phenyl)-(4-amino-2-phenylamino-thiazol-5-yl)-methanone] | 0.49 µM | – | 0.9 µM | – | – | –

Second part, led by results:

Row | Ki [1] | Ki [2] | Ki [3] | Ki ([4]; apparent Ki) | Ki ([1]; μM) | SMILES | also measured
4 | – | 3900 nM | – | – | 3.1 µM | Nc1nc(Nc2ccccc2)sc1C(=O)C1CC1 [I(4)*] | Ki ([3]; μM): 4.3 µM
5 | – | – | 8.7 µM | 8 µM | ~30 µM | CC(=O)c1sc(Nc2ccccc2)nc1N [I(2)*] | –
6 | 0.87 µM | 4500 nM | 4.6 µM | 1.1 µM | – | CCNc1nc(N)c(C(=O)c2ccccc2)s1 [I(5)*] | –
7 | 0.77 µM | – | 1.2 µM | 0.66 µM | – | Nc1nc(Nc2ccccc2)sc1C(=O)c1cccc([N+](=O)[O-])c1 [A(1), (4-Amino-2-phenylamino-thiazol-5-yl)-(3-nitrophenyl)-methanone] | IC50 [5]: 2500 nM; IC90 [5]: 10000 nM; IC50 [6]: 4000 nM; IC90 [6]: 9000 nM
